{"source": "patent US4226610A", "about": "“Herbicidal compounds, preparation thereof and herbicides containing the same” (Meiji Selka Kaisha, Ltd., priority 1978, dated 1980)", "key": {"[1]": {"system": "weeds and shrubs", "assay": "Weeding effects, general statements", "type": "in vivo", "conditions": "as shown in Experiment 1"}, "[2]": {"system": "chestnut", "assay": "Experiment 2 foliar application in Japanese cypress afforested land", "type": "in vivo, Castanea crenata Sieb et Zucc.", "conditions": "0.063%; after 30 days", "experimental": "(§1) The detail of the assessment made in the following Experiments of the invention was as follows:\n(§2) The compounds of the invention and other compounds listed in Table 4. were diluted to prescribed concentrations and sprayed to shrubs by foliar application in a Japanese cypress afforested land in an amount of 150 liter per 10 are.\n(§3) After 30 days and 3 months, the killing index (0, no effect; 5, death) was determined.\n(§4) The heights of plants were 50-70 cm. for Japanese cypress, about 50 cm. for chestnut, 50-90 cm. for miyakozasa, about 100 cm. for eulalia and 70-100 cm. for kumaichigo, respectively."}, "[3]": {"system": "miyakozasa", "assay": "Experiment 2 foliar application in Japanese cypress afforested land", "type": "in vivo, Sasa nipponica Makino et Shibata", "conditions": "0.125%; after 3 months", "experimental": "as §1, §2, §3, §4"}, "[4]": {"system": "water hyacinth", "assay": "Experiment 4 foliar application to water hyacinths with surfactants", "type": "in vivo, Eichhornia crassipes Solms", "design": "key to Killing index: killing index: 0 = no effect, 5 = death", "source_text": "as §1\nFour months after treatment, evaluation was made for inhibition of reproduction expressed in terms of symbols ranging from (-) to (+++) where (-) means no reproduction, namely complete suppression of reproduction, (±) remarkable suppression of reproduction; (+) considerable suppression of reproduction; (++) medium supprestion of reproduction; and (+++) no suppression of reproduction.\nWater was placed in 20 cm.×30 cm. plastic vessels and a liquid fertilizer was added thereto.\nTwo water hyacinths were floated in each vessel. 0.1 or 0.2% of each of surfactants listed in Table 6 were added to 0.1 or 0.2% aqueous solutions of DL-AMPB choline. Each solution was sprayed by foliar application in an amount of 100 liter per 10 are. The killing index (0, no effect; 5, death) after 21 days and 3 months and the reproduction-inhibiting effect (-, no reproduction; +++, maximum reproduction) after 3 months were determined."}, "[5]": {"conditions": "0.1%, octylphenyl polyoxyethanol 0.2%, 3 months"}}}
{"smiles": "CP(=O)(O)CC[C@H](N)C(=O)O", "note": "[L-AMPB choline, L-2-Amino-4-methylphosphino-butanoic acid choline]", "values": [{"measurement": "effectiveness relative to monosodium or monodiethylammonium salts of L-2-amino-4-methylphosphinobutanoic acid", "setting": "[1]", "value": "twice effective"}, {"measurement": "Killing index", "setting": "[2]", "value": 3.5}]}
{"smiles": "C[C@H](NC(=O)[C@H](C)NC(=O)[C@@H](N)CCP(C)(=O)O)C(=O)O", "note": "[SF-1293 choline, (L-2-Amino-4-methylphosphinobutyryl)-L-alanyl-L-alanine choline]", "values": [{"measurement": "Killing index", "setting": "[3]", "value": 4.5}]}
{"smiles": "CP(=O)(O)CCC(N)C(=O)O", "note": "(racemic) [DL-AMPB choline]", "values": [{"measurement": "Reproduction-inhibiting effect", "setting": "[4]; 0.1%, no surfactant, 3 months", "value": "+++"}, {"measurement": "Reproduction-inhibiting effect", "setting": "[4]; 0.1%, octylphenyl polyoxyethanol 0.1%, 3 months", "value": "+"}, {"measurement": "Killing index", "setting": "[4]; [5]", "value": 4.5}, {"measurement": "Reproduction-inhibiting effect", "setting": "[4]; [5]", "value": "±"}, {"measurement": "Reproduction-inhibiting effect", "setting": "[4]; 0.1%, polyoxyethylene alkylaryl ether 0.1%, 3 months", "value": "++"}, {"measurement": "Killing index", "setting": "[4]; 0.1%, polyoxyethylene alkylaryl ether 0.1%, 21 days", "value": 2.5}, {"measurement": "Reproduction-inhibiting effect", "setting": "[4]; 0.1%, polyoxyethylene alkylaryl ether 0.2%, 3 months", "value": "±"}, {"measurement": "Reproduction-inhibiting effect", "setting": "[4]; 0.1%, polyoxyethylene dodecyl ether 0.1%, 3 months", "value": "++"}, {"measurement": "Killing index", "setting": "[4]; 0.1%, polyoxyethylene dodecyl ether 0.1%, 21 days", "value": 2.5}, {"measurement": "Reproduction-inhibiting effect", "setting": "[4]; 0.1%, polyoxyethylene dodecyl ether 0.2%, 3 months", "value": "±"}, {"measurement": "Reproduction-inhibiting effect", "setting": "[4]; 0.1%, polyoxyethylene sorbitan monooleate 0.1%, 3 months", "value": "++"}, {"measurement": "Killing index", "setting": "[4]; 0.1%, polyoxyethylene sorbitan monooleate 0.1%, 21 days", "value": 2.5}, {"measurement": "Reproduction-inhibiting effect", "setting": "[4]; 0.1%, polyoxyethylene sorbitan monooleate 0.2%, 3 months", "value": "±"}, {"measurement": "Reproduction-inhibiting effect", "setting": "[4]; 0.1%, polyoxyethylene sorbitan monostearate 0.1%, 3 months", "value": "++"}, {"measurement": "Killing index", "setting": "[4]; 0.1%, polyoxyethylene sorbitan monostearate 0.1%, 21 days", "value": 2.5}, {"measurement": "Reproduction-inhibiting effect", "setting": "[4]; 0.1%, polyoxyethylene sorbitan monostearate 0.2%, 3 months", "value": "±"}, {"measurement": "Killing index", "setting": "[4]; 0.2%, no surfactant, 3 months", "value": 4.5}, {"measurement": "Reproduction-inhibiting effect", "setting": "[4]; 0.2%, no surfactant, 3 months", "value": "±"}, {"measurement": "Reproduction-inhibiting effect", "setting": "[4]; 0.2%, octylphenyl polyoxyethanol 0.1%, 3 months", "value": "-"}, {"measurement": "Reproduction-inhibiting effect", "setting": "[4]; 0.2%, octylphenyl polyoxyethanol 0.2%, 3 months", "value": "-"}, {"measurement": "Reproduction-inhibiting effect", "setting": "[4]; 0.2%, polyoxyethylene alkylaryl ether 0.1%, 3 months", "value": "-"}, {"measurement": "Killing index", "setting": "[4]; 0.2%, polyoxyethylene alkylaryl ether 0.1%, 21 days", "value": 4.5}, {"measurement": "Reproduction-inhibiting effect", "setting": "[4]; 0.2%, polyoxyethylene alkylaryl ether 0.2%, 3 months", "value": "-"}, {"measurement": "Reproduction-inhibiting effect", "setting": "[4]; 0.2%, polyoxyethylene dodecyl ether 0.1%, 3 months", "value": "-"}, {"measurement": "Killing index", "setting": "[4]; 0.2%, polyoxyethylene dodecyl ether 0.1%, 21 days", "value": 4.5}, {"measurement": "Reproduction-inhibiting effect", "setting": "[4]; 0.2%, polyoxyethylene dodecyl ether 0.2%, 3 months", "value": "-"}, {"measurement": "Reproduction-inhibiting effect", "setting": "[4]; 0.2%, polyoxyethylene sorbitan monooleate 0.1%, 3 months", "value": "-"}, {"measurement": "Killing index", "setting": "[4]; 0.2%, polyoxyethylene sorbitan monooleate 0.1%, 21 days", "value": 4.5}, {"measurement": "Reproduction-inhibiting effect", "setting": "[4]; 0.2%, polyoxyethylene sorbitan monooleate 0.2%, 3 months", "value": "-"}, {"measurement": "Reproduction-inhibiting effect", "setting": "[4]; 0.2%, polyoxyethylene sorbitan monostearate 0.1%, 3 months", "value": "-"}, {"measurement": "Killing index", "setting": "[4]; 0.2%, polyoxyethylene sorbitan monostearate 0.1%, 21 days", "value": 4.5}, {"measurement": "Reproduction-inhibiting effect", "setting": "[4]; 0.2%, polyoxyethylene sorbitan monostearate 0.2%, 3 months", "value": "-"}]}
